Key:
corn = experiment: Test B pan test in Sassafras sandy loam soil, pre- and postemergence; type: in vivo, Zea mays; conditions: scale 0 to 100
Excerpt: (§1) Three round pans (25 cm diameter by 12.5 cm deep) were filled with Sassafras sandy loam soil. One pan was planted with nutsedge (Cyperus rotundus) tubers, crabgrass (Digitaria sanguinalis), sicklepod (Cassia obtusifolia), jimsonweed (Datura stramonium), velvetleaf (Abutilon theophrasti), lambsquarters (Chenopodim album), rice (Oryza sativa) and teaweed (Sida spinosa). The second pot was planted with green foxtail (Setaria viridis), cocklebur (Xantium pensyivanicum), morningglory (lpomoea hederacea), cotton (Gossypium hirsutum), johnsongrass (Sorghum halepense), barnyardgrass (Echinochloa crusgalli), corn (Zea mays), soybean (Glycine max) and giant foxtail (Setaria faberi). The third pot was planted with wheat (Triticum aestivum), barley (Hordeum vulgare), wild buckwheat (Polgonum convolvulus L.), cheatgrass (Bromus secalinus L.), sugarbeet (Beta vulgaris), wild oats (Avena fatua), viola (Viola arvensis), blackgrass (Alopecurus myosuroides), and rape (Brassica napus). The plants were grown for approximately fourteen days, then sprayed postemergence with the chemicals dissolved in a non-phytotoxic solvent.
(§2) Three round pans (25 cm diameter by 12.5 cm deep) were filled with Sassafras sandy loam soil. One pan was planted with nutsedge tubers, crabgrass, sicklepod, jimsonweed, velvetleaf, lambsquarters, rice and teaweed. The second pot was planted with green foxtail, cocklebur, morningglory, cottom, johnsongrass, . barnyardgrass, corn, soybean and giant foxtail. The third pot was planted with wheat, barley, wild buckwheat, cheatgrass, sugarbeet, wild oat, viola, blackgrass and rape. The three pans were sprayed preemer gence with the chemicals dissolved in a non-phytotoxic solvent.
(§3) Treated plants and controls were maintained in the greenhouse for 24 days, then all rated plants were compared to controls and visually rated for plant response.
(§4) A dash (-) response means no test.

giant foxtail = experiment: as above; type: in vivo, Setaria faberi; conditions: scale 0 to 100
Excerpt: as §1, §2, §3, §4

jimsonweed = experiment: as above; type: in vivo, Datura stramonium; conditions: scale 0 to 100
Excerpt: as §1, §2, §3, §4

barnyardgrass [1] = experiment: Test A greenhouse herbicide test, pre- and postemergence; type: in vivo, Echinochloa crusgalli; conditions: rated after sixteen days
Excerpt: (§5) Seeds of crabgrass (Digitaria spp.), barnyardgrass (Echinochloa crusgalli), cheatgrass (Bromus Secalinus), giant foxtail (Setaria faberii), wild oats (Avena fatua), velvetleaf (Abutilon theophrasti), morningglory (Ipomoea spp. , cocklebur (Xanthium pensylvanicum). sorghum, corn, barley, soybean, sugarbeet, cotton, rice, wheat and purple nutsedge (Cyperus rotundus) tubers were planted and treated preemergence with the test chemicals dissolved in a non-phytotoxic solvent. At the same time, these crop and weed species were treated with a soil/foliage application. At the time of treatment, the plants ranged in height from 2 to 18 cm. Treated plants and controls were maintained in a greenhouse for sixteen days, after which all species were compared to controls and visually rated for response to treatment. The ratings, summarized in Table A, are based on a numerical scale extending from 0 = no injury, to 10 = complete kill. The accompanying descriptive symbols have the following meanings: • B = burn; • C = chlorosis/necrosis; • D = defoliation; • E = emergence inhibition; • G = growth retardation; • H = formative effect; • U = unusual pigmentation; • X = axillary stimulation; • S = albinism; and • 6Y = abscised buds or flowers.

wild oats = experiment: Test B pan test in Sassafras sandy loam soil, pre- and postemergence; type: in vivo, Avena fatua; conditions: scale 0 to 100
Excerpt: as §1, §2, §3, §4

morningglory = experiment: as above; type: in vivo, lpomoea hederacea; conditions: scale 0 to 100
Excerpt: as §1, §2, §3, §4

nutsedge = experiment: as above; type: in vivo, Cyperus rotundus; conditions: scale 0 to 100
Excerpt: as §1, §2, §3, §4

wheat = experiment: as above; type: in vivo, Triticum aestivum; conditions: scale 0 to 100
Excerpt: as §1, §2, §3, §4

barnyardgrass [2] = experiment: as above; type: in vivo, Echinochloa crusgalli; conditions: scale 0 to 100
Excerpt: as §1, §2, §3, §4

cheatgrass = experiment: Test A greenhouse herbicide test, pre- and postemergence; type: in vivo, Bromus Secalinus; conditions: rated after sixteen days
Excerpt: as §5

johnsongrass = experiment: Test B pan test in Sassafras sandy loam soil, pre- and postemergence; type: in vivo, Sorghum halepense; conditions: scale 0 to 100
Excerpt: as §1, §2, §3, §4

sugarbeet = experiment: as above; type: in vivo, Beta vulgaris; conditions: scale 0 to 100
Excerpt: as §1, §2, §3, §4

velvetleaf = experiment: as above; type: in vivo, Abutilon theophrasti; conditions: scale 0 to 100
Excerpt: as §1, §2, §3, §4

## CCOC(=O)c1c(CC#N)cccc1S(=O)(=O)NC(=O)Nc1nc(OC)cc(OC)n1 [Compound 3, 2-(cyanomethyl)-6 [[(4,6-dimethoxypyrimidin-2-yl)-aminocarbonyl]aminosulfonyl]benzoic acid, ethyl ester]
corn; POSTEMERGENCE, RATE 0001 G/HA
  CORN response rating: 90
corn; POSTEMERGENCE, RATE 0004 G/HA
  CORN response rating: 100
corn; POSTEMERGENCE, RATE 0016 G/HA
  CORN response rating: 100
corn; POSTEMERGENCE, RATE 0062 G/HA
  CORN response rating: 100
corn; PREEMERGENCE, RATE 0004 G/HA
  CORN response rating: 0
corn; PREEMERGENCE, RATE 0016 G/HA
  CORN response rating: 30
corn; PREEMERGENCE, RATE 0062 G/HA
  CORN response rating: 60
Giant foxtail; POSTEMERGENCE, RATE 0001 G/HA
  GIANT FOXTAIL response rating: 90
Giant foxtail; POSTEMERGENCE, RATE 0004 G/HA
  GIANT FOXTAIL response rating: 100
Giant foxtail; POSTEMERGENCE, RATE 0016 G/HA
  GIANT FOXTAIL response rating: 100
Giant foxtail; POSTEMERGENCE, RATE 0062 G/HA
  GIANT FOXTAIL response rating: 100
Giant foxtail; PREEMERGENCE, RATE 0004 G/HA
  GIANT FOXTAIL response rating: 30
Giant foxtail; PREEMERGENCE, RATE 0016 G/HA
  GIANT FOXTAIL response rating: 60
Giant foxtail; PREEMERGENCE, RATE 0062 G/HA
  GIANT FOXTAIL response rating: 100
jimsonweed; POSTEMERGENCE, RATE 0001 G/HA
  JIMSONWEED response rating: 30
jimsonweed; POSTEMERGENCE, RATE 0004 G/HA
  JIMSONWEED response rating: 60
jimsonweed; POSTEMERGENCE, RATE 0016 G/HA
  JIMSONWEED response rating: 100
jimsonweed; POSTEMERGENCE, RATE 0062 G/HA
  JIMSONWEED response rating: 100
jimsonweed; PREEMERGENCE, RATE 0004 G/HA
  JIMSONWEED response rating: 0
jimsonweed; PREEMERGENCE, RATE 0016 G/HA
  JIMSONWEED response rating: 0
jimsonweed; PREEMERGENCE, RATE 0062 G/HA
  JIMSONWEED response rating: 30
Barnyardgrass [1]; POSTEMERGENCE, RATE 0.01 KG/HA
  BARNYARD GRASS visual rating of response to treatment: 9C
Barnyardgrass [1]; POSTEMERGENCE, RATE 0.05 KG/HA
  BARNYARD GRASS visual rating of response to treatment: 10C
Barnyardgrass [1]; PREEMERGENCE, RATE 0.01 KG/HA
  BARNYARD GRASS visual rating of response to treatment: 2G
Wild oats; POSTEMERGENCE, RATE 0001 G/HA
  WILD OATS response rating: 0
Wild oats; POSTEMERGENCE, RATE 0004 G/HA
  WILD OATS response rating: 30
Wild oats; POSTEMERGENCE, RATE 0016 G/HA
  WILD OATS response rating: 50
Wild oats; POSTEMERGENCE, RATE 0062 G/HA
  WILD OATS response rating: 80
Wild oats; PREEMERGENCE, RATE 0004 G/HA
  WILD OATS response rating: 20
Wild oats; PREEMERGENCE, RATE 0016 G/HA
  WILD OATS response rating: 40
Wild oats; PREEMERGENCE, RATE 0062 G/HA
  WILD OATS response rating: 60
morningglory; POSTEMERGENCE, RATE 0001 G/HA
  MORNINGGLORY response rating: 30
morningglory; POSTEMERGENCE, RATE 0004 G/HA
  MORNINGGLORY response rating: 50
morningglory; POSTEMERGENCE, RATE 0016 G/HA
  MORNINGGLORY response rating: 70
morningglory; POSTEMERGENCE, RATE 0062 G/HA
  MORNINGGLORY response rating: 90
morningglory; PREEMERGENCE, RATE 0004 G/HA
  MORNINGGLORY response rating: 0
morningglory; PREEMERGENCE, RATE 0016 G/HA
  MORNINGGLORY response rating: 0
morningglory; PREEMERGENCE, RATE 0062 G/HA
  MORNINGGLORY response rating: 30
nutsedge; POSTEMERGENCE, RATE 0001 G/HA
  NUTSEDGE response rating: 100
nutsedge; POSTEMERGENCE, RATE 0004 G/HA
  NUTSEDGE response rating: 100
nutsedge; POSTEMERGENCE, RATE 0016 G/HA
  NUTSEDGE response rating: 100
nutsedge; POSTEMERGENCE, RATE 0062 G/HA
  NUTSEDGE response rating: 100
nutsedge; PREEMERGENCE, RATE 0004 G/HA
  NUTSEDGE response rating: 0
nutsedge; PREEMERGENCE, RATE 0016 G/HA
  NUTSEDGE response rating: 30
nutsedge; PREEMERGENCE, RATE 0062 G/HA
  NUTSEDGE response rating: 70
wheat; POSTEMERGENCE, RATE 0001 G/HA
  WHEAT response rating: 30
wheat; POSTEMERGENCE, RATE 0004 G/HA
  WHEAT response rating: 50
wheat; POSTEMERGENCE, RATE 0016 G/HA
  WHEAT response rating: 70
wheat; POSTEMERGENCE, RATE 0062 G/HA
  WHEAT response rating: 100
wheat; PREEMERGENCE, RATE 0004 G/HA
  WHEAT response rating: 0
wheat; PREEMERGENCE, RATE 0016 G/HA
  WHEAT response rating: 30
wheat; PREEMERGENCE, RATE 0062 G/HA
  WHEAT response rating: 70
Barnyardgrass [2]; POSTEMERGENCE, RATE 0001 G/HA
  BARNYARD GRASS response rating: 70
Barnyardgrass [2]; POSTEMERGENCE, RATE 0004 G/HA
  BARNYARD GRASS response rating: 100
Barnyardgrass [2]; POSTEMERGENCE, RATE 0016 G/HA
  BARNYARD GRASS response rating: 100
Barnyardgrass [2]; POSTEMERGENCE, RATE 0062 G/HA
  BARNYARD GRASS response rating: 100
Barnyardgrass [2]; PREEMERGENCE, RATE 0004 G/HA
  BARNYARD GRASS response rating: 30
Barnyardgrass [2]; PREEMERGENCE, RATE 0016 G/HA
  BARNYARD GRASS response rating: 50
Barnyardgrass [2]; PREEMERGENCE, RATE 0062 G/HA
  BARNYARD GRASS response rating: 80
cheatgrass; POSTEMERGENCE, RATE 0.01 KG/HA
  CHEATGRASS visual rating of response to treatment: 6G
cheatgrass; PREEMERGENCE, RATE 0.01 KG/HA
  CHEATGRASS visual rating of response to treatment: 5G
cheatgrass; PREEMERGENCE, RATE 0.05 KG/HA
  CHEATGRASS visual rating of response to treatment: 8H
johnsongrass; POSTEMERGENCE, RATE 0001 G/HA
  JOHNSONGRASS response rating: 30
johnsongrass; POSTEMERGENCE, RATE 0004 G/HA
  JOHNSONGRASS response rating: 60
johnsongrass; POSTEMERGENCE, RATE 0016 G/HA
  JOHNSONGRASS response rating: 100
johnsongrass; POSTEMERGENCE, RATE 0062 G/HA
  JOHNSONGRASS response rating: 100
johnsongrass; PREEMERGENCE, RATE 0004 G/HA
  JOHNSONGRASS response rating: 0
johnsongrass; PREEMERGENCE, RATE 0016 G/HA
  JOHNSONGRASS response rating: 30
johnsongrass; PREEMERGENCE, RATE 0062 G/HA
  JOHNSONGRASS response rating: 80
sugarbeet; POSTEMERGENCE, RATE 0001 G/HA
  SUGAR BEETS response rating: 70
sugarbeet; POSTEMERGENCE, RATE 0004 G/HA
  SUGAR BEETS response rating: 100
sugarbeet; POSTEMERGENCE, RATE 0016 G/HA
  SUGAR BEETS response rating: 100
sugarbeet; POSTEMERGENCE, RATE 0062 G/HA
  SUGAR BEETS response rating: 100
sugarbeet; PREEMERGENCE, RATE 0004 G/HA
  SUGAR BEETS response rating: 50
sugarbeet; PREEMERGENCE, RATE 0016 G/HA
  SUGAR BEETS response rating: 70
sugarbeet; PREEMERGENCE, RATE 0062 G/HA
  SUGAR BEETS response rating: 90
velvetleaf; POSTEMERGENCE, RATE 0001 G/HA
  VELVETLEAF response rating: 70
velvetleaf; POSTEMERGENCE, RATE 0004 G/HA
  VELVETLEAF response rating: 100
velvetleaf; POSTEMERGENCE, RATE 0016 G/HA
  VELVETLEAF response rating: 100
velvetleaf; POSTEMERGENCE, RATE 0062 G/HA
  VELVETLEAF response rating: 100
velvetleaf; PREEMERGENCE, RATE 0004 G/HA
  VELVETLEAF response rating: 0
velvetleaf; PREEMERGENCE, RATE 0016 G/HA
  VELVETLEAF response rating: 30
velvetleaf; PREEMERGENCE, RATE 0062 G/HA
  VELVETLEAF response rating: 50

From patent publication EP0318620A1, “Herbicidal sulfonamides” (E.I. DU PONT DE NEMOURS AND COMPANY, priority 1987, dated 1989)
